Experiments:
AsPC-1 cells (KRAS G12D) [1] = test: Cell-based pERK HTRF assay in AsPC-1 cells (Biological Example 5); conditions: Homo sapiens, ASPC1, AsPC-1 (KRAS G12D) cells
Method in brief: (§1)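 Overnight-plated cells (2.5×10^4/well, 10% FBS); 2 h compound, 9-pt 3-fold curve, 0.25% DMSO, 37° C; lysis 30 min RT; Eu cryptate/D2 anti-pERK (T202/Y204) detection 24 h, 4° C; 665/620 ratio → % pERK → 4-PL EC50.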

SW1900 cells (KRAS G12D) [2] = test: Cell-based pERK HTRF assay in SW1900 cells (Biological Example 5); conditions: Homo sapiens, SW1990, SW1990 cells (text: SW1900, KRAS G12D)
Method in brief: as §1

HPAC cells (KRAS G12D) [3] = test: Cell-based pERK HTRF assay in HPAC cells (Biological Example 5); conditions: Homo sapiens, HPAC
Method in brief: as §1

[4] = test system: Capan-2 cells (KRAS G12V); test: Cell-based pERK HTRF assay in Capan-2 cells (Biological Example 5); conditions: Homo sapiens, Capan-2, Capan-2 (KRAS G12V) cells
Method in brief: as §1

H358 cells (KRAS G12C) [5] = test: Cell-based pERK HTRF assay in H358 cells (Biological Example 5); conditions: Homo sapiens, NCI-H358, H358 (KRAS G12C) cells
Method in brief: as §1

HCT116 cells (KRAS G13D) = test: Cell-based pERK HTRF assay in HCT116 cells (Biological Example 5); conditions: Homo sapiens, HCT-116
Method in brief: as §1

KP-2 cells (KRAS G12R) = test: Cell-based pERK HTRF assay in KP-2 cells (Biological Example 5); conditions: KP-2 (KRAS G12R) cells
Procedure: Biological Example 5: Cell-based PERK HTRF assay in AsPC-1, SW1900, HPAC, Capan-2, RKN, H358, HCT116, KP-2, H1573, A549, MKN1, and HT1080 cells
The inhibition of ERK phosphorylation, as measured using the HTRF Advanced Phospho-ERK 1/2 (Thr202/Tyr204) Detection Assay kit (Perkin Elmer), was used to determine the effectiveness of test compounds in disrupting KRAS-driven protein/effector signaling in cells.
On day 1, cells were seeded into 96-well plates at 2.5×10^4 cells/well in 100 μL of complete growth media supplemented with 10% fetal bovine serum (FBS) and incubated at 37° C., in the presence of 5% CO2.
On day 2, cells were treated with compounds diluted in DMSO at 0.25% final DMSO concentration. Compounds were dosed in a 9-point concentration curve with three-fold dilution between concentrations. Cells were incubated in the presence of compound for two hours at 37° C. Following this treatment period, cells were harvested by aspirating the media, adding 40 μL of kit-supplied 1x lysis buffer per well, and shaking for 30 minutes at 250 rpm at room temperature.
Following cell lysis, samples were homogenized by pipetting up and down twenty times and 16 μL of cell lysate per well was transferred from the 96-well cell culture plate to two wells of a 384-well detection plate. A complete detection buffer was prepared by diluting D2 and Eu Cryptate antibodies 1:20 in kit-provided detection solution, 4 μL of complete detection buffer was then added to each well with lysate. Plates were incubated with gentle rocking for 24 hours at 4° C.
Following this incubation period, plates were centrifuged at 500×g for one minute and analyzed on a CLARIOstar plate reader. Data was imported into Microsoft Excel and the signal from the 665 nm channel was divided by the signal from the 620 nm channel. % pERK was calculated as: […]
Data was imported to the Prism software package (Graphpad) and EC50 values were calculated using the log (inhibitor) vs, response—variable slopc (Four parameters) model.

[6] = test system: MKN1 cells (KRAS amplification); test: Cell-based pERK HTRF assay in MKN1 cells (Biological Example 5); conditions: Homo sapiens, MKN-1, MKN cells (MKN1, KRAS amplification)
Method in brief: as §1

HT1080 cells (NRAS) [7] = test: Cell-based pERK HTRF assay in HT1080 cells (Biological Example 5); conditions: Homo sapiens, HT-1080
Method in brief: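 Cells seeded at 2.5×10^4/well in 10% FBS medium overnight, then treated 2 h at 37 °C with a 9-point, 3-fold compound series (0.25% DMSO). Lysates read by HTRF for pERK1/2 (Thr202/Tyr204), 665/620 nm ratio; EC50 from four-parameter fit.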

AsPC-1 cells (KRAS G12D) [8] = test: 3D Cell viability assay in AsPC-1 cells (Biological Example 6); format: cell-based; conditions: Homo sapiens, ASPC1; AsPC-1 (KRAS G12D) spheroids, 72 hours
Method in brief: (§2)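 Spheroids formed from 1000 cells/well over 48 h in ultra-low-attachment plates, 10% FBS medium, 37 °C, 5% CO2. Then treated 72 h with a 9-point, three-fold compound series at 0.25% DMSO. Viability by CellTiter-Glo 3D luminescence, EC50 from four-parameter variable-slope fit.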

SW1900 cells (KRAS G12D) [9] = test: 3D Cell viability assay in SW1900 cells (Biological Example 6); format: cell-based; conditions: Homo sapiens; SW1990 (text: SW1900, KRAS G12D) spheroids, 72 hours
Method in brief: as §2

HPAC cells (KRAS G12D) [10] = test: 3D Cell viability assay in HPAC cells (Biological Example 6); format: cell-based; conditions: Homo sapiens, HPAC, 72 h, HPAC (KRAS G12D) spheroids
Method in brief: as §2

[11] = test system: Capan-2 cells (KRAS G12V); test: 3D Cell viability assay in Capan-2 cells (Biological Example 6); format: cell-based; conditions: Homo sapiens; Capan-2 (KRAS G12V) spheroids, 72 hours
Method in brief: as §2

H358 cells (KRAS G12C) [12] = test: 3D Cell viability assay in H358 cells (Biological Example 6); format: cell-based; conditions: Homo sapiens, NCI-H358; H358 (KRAS G12C) spheroids, 72 hours
Method in brief: as §2

[13] = test system: MKN1 cells (KRAS amplification); test: 3D Cell viability assay in MKN1 cells (Biological Example 6); format: cell-based; conditions: Homo sapiens, MKN-1; MKN (MKN1, KRAS amplification) spheroids, 72 hours
Method in brief: as §2

HT1080 cells (NRAS) [14] = test: 3D Cell viability assay in HT1080 cells (Biological Example 6); format: cell-based; conditions: Homo sapiens, HT-1080; HT1080 (NRAS) spheroids, 72 hours
Method in brief: as §2

| SMILES | IC50 (AsPC-1 cells (KRAS G12D) [1]) [nM] | IC50 (SW1900 cells (KRAS G12D) [2]) [nM] | IC50 (HPAC cells (KRAS G12D) [3]) [nM] | IC50 [4] [nM] | IC50 (H358 cells (KRAS G12C) [5]) [nM] | IC50 (HCT116 cells (KRAS G13D)) [nM] | IC50 (KP-2 cells (KRAS G12R)) [nM] | IC50 [6] [nM] | IC50 (HT1080 cells (NRAS) [7]) [nM] | IC50 (AsPC-1 cells (KRAS G12D) [8]) [nM] | IC50 (SW1900 cells (KRAS G12D) [9]) [nM] | IC50 (HPAC cells (KRAS G12D) [10]) [nM] | IC50 [11] [nM] | IC50 (H358 cells (KRAS G12C) [12]) [nM] | IC50 [13] [nM] | IC50 (HT1080 cells (NRAS) [14]) [nM] |
| --- | --- | --- | --- | --- | --- | --- | --- | --- | --- | --- | --- | --- | --- | --- | --- | --- |
| CCC(=O)N1CC[C@@H](N(CC)c2nc(OC[C@@]34CCCN3C[C@H](F)C4)nc3c(F)c(-c4ccc(F)c5sc(N)c(C#N)c45)c(C(F)(F)F)cc23)[C@H]1C (atropisomer, axis not shown) [Compound 523] | 100 to 1000 | ≤ 100 | ≤ 100 | ≤ 100 | ≤ 100 | ≤ 100 | ≤ 100 | ≤ 100 | > 1000 | 100 to 1000 | ≤ 100 | > 1000 | ≤ 100 | ≤ 100 | ≤ 100 | > 1000 |
| CCN(c1nc(OC[C@@]23CCCN2C[C@H](F)C3)nc2c(F)c(-c3ccc(F)c4sc(N)c(C#N)c34)c(C(F)(F)F)cc12)[C@@H]1CCN(C(=O)C2CC2)[C@@H]1C (atropisomer, axis not shown) [Compound 524] | 100 to 1000 | ≤ 100 | ≤ 100 | ≤ 100 | ≤ 100 | ≤ 100 | ≤ 100 | ≤ 100 | > 1000 | 100 to 1000 | ≤ 100 | > 1000 | ≤ 100 | ≤ 100 | ≤ 100 | > 1000 |
| CCN(c1nc(OC[C@@]23CCCN2C[C@H](F)C3)nc2c(F)c(-c3ccc(F)c4sc(N)c(C#N)c34)c(C(F)(F)F)cc12)[C@H]1CCN(C(=O)N(C)C)C1 (atropisomer, axis not shown) [Compound 540, (3S)-3-[[7-(2-amino-3-cyano-7-fluoro-benzothiophen-4-yl)-8-fluoro-2-[[(2R,8S)-2-fluoro-1,2,3,5,6,7-hexahydropyrrolizin-8-yl]methoxy]-6-(trifluoromethyl)quinazolin-4-yl]-ethyl-amino]-N,N-dimethyl-pyrrolidine-1-carboxamide] | 100 to 1000 | ≤ 100 | ≤ 100 | ≤ 100 | ≤ 100 | ≤ 100 | ≤ 100 | ≤ 100 | > 1000 | 100 to 1000 | ≤ 100 | 100 to 1000 | ≤ 100 | ≤ 100 | ≤ 100 | > 1000 |

Source: patent publication US20260042764A1, “COMPOSITIONS AND METHODS FOR INHIBITION OF KRAS” (TheRas, Inc., priority 2022, published 2026)
